Reference: ChEMBL document CHEMBL4364286, “Structure-Guided Design, Synthesis, and Biological Evaluation of (2-(1H-Indol-3-yl)-1H-imidazol-4-yl)(3,4,5-trimethoxyphenyl) Methanone (ABI-231) Analogues Targeting the Colchicine Binding Site in Tubulin” (J Med Chem, 2019)
Activity calls are given as the source filed them. The rule behind the calls is not given here.

Key:
A-375 [1] = assay: Antiproliferative activity against human A375 cells after 72 hrs by MTT assay; type: functional, cell-based; conditions: A-375, 72 h, read-out: IC50
M14 = assay: Antiproliferative activity against human M14 cells after 72 hrs by MTT assay; type: functional, cell-based; conditions: M14, 72 h
WM164 = assay: Antiproliferative activity against human WM164 cells after 72 hrs by MTT assay; type: functional, cell-based; conditions: WM164, 72 h
Tubulin (Bos taurus) = Tubulin (Bos taurus) (UniProt Q6B856+Q862L2+Q862F3); assay: Inhibition of bovine brain tubulin polymerization at 10 uM measured at time interval of 1 mins for 20 mins by spectrophotometric analysis
Tubulin (Homo sapiens) [2] = target: T1, Tubulin (Homo sapiens) (UniProt P68371+Q9H4B7+P0DPH7+P68366+Q13509+Q71U36+P04350+Q3ZCM7+P07437+P68363+Q9BQE3+Q6PEY2+Q13885+Q9BVA1+Q9BUF5); assay: Disruption of microtubule network in human WM164 cells assessed as microtubule fragmentation at 100 nM after 18 hrs by DAPI staining based fluorescence confocal microscopic method; type: cell-based
Tubulin (Homo sapiens) [3] = target: T1, Tubulin (Homo sapiens); assay: Disruption of microtubule network in human WM164 cells assessed as microtubule disassembly at 100 nM after 18 hrs by DAPI staining based fluorescence confocal microscopic method; type: cell-based
A-375 [4] = assay: Inhibition of anchorage-dependent colony formation in human A375 cells assessed as decrease in colony number at 5 nM after 12 days by crystal violet-staining based assay relative to control; type: functional; conditions: A-375, 288 h
A-375 [5] = assay: Antimigratory activity in human A375 cells assessed as wound closure at 5 nM after 22 hrs by scratch migration assay (reference value: 60.7 +/- 3.5%); type: functional
A-375 [6] = assay: Antimigratory activity in human A375 cells assessed as wound closure at 25 nM after 22 hrs by scratch migration assay (reference value: 60.7 +/- 3.5%); type: functional
RPMI-7951 = assay: Antimigratory activity in human RPMI7951 cells assessed as wound closure at 25 nM after 18 hrs by scratch migration assay (reference value: 71.8 +/- 1.8%); type: functional
[7] = Half-life in CD-1 mouse liver microsomes in presence of NADPH regenerating system measured up to 4 hrs by UPLC-MS analysis; type: ADME, Microsome
[8] = Intrinsic clearance in CD-1 mouse liver microsomes in presence of NADPH regenerating system measured up to 4 hrs by UPLC-MS analysis; type: ADME, Microsome; conditions: read-out: CLH
[9] = Half-life in rat liver microsomes pre-incubated for 15 mins followed by addition of NADPH regenerating system by LC-MS analysis; type: ADME, Microsome
[10] = Intrinsic clearance in rat liver microsomes pre-incubated for 15 mins followed by addition of NADPH regenerating system by LC-MS analysis; type: ADME, Microsome; conditions: read-out: CLH
[11] = Half-life in human liver microsomes in presence of NADPH regenerating system; type: ADME, Microsome
[12] = Intrinsic clearance in human liver microsomes in presence of NADPH regenerating system; type: ADME, Microsome; conditions: read-out: CLH
[13] = Toxicity in ip dosed ICR mouse assessed as maximum tolerated dose; type: organism-based; conditions: in vivo
A-375 [14] = assay: Antitumor activity against human A375 cells xenografted in nude mouse assessed as tumor growth inhibition at 15 mg/kg, ip administered once daily for 14 days and measured after 20 days by caliper method relative to control; type: functional; conditions: A-375, ip, read-out: TGI
A-375 [15] = assay: Antitumor activity against human A375 cells xenografted in nude mouse assessed as tumor growth inhibition at 30 mg/kg, ip administered once daily for 14 days and measured after 20 days by caliper method relative to control; type: functional; conditions: A-375, ip, read-out: TGI
A-375 [16] = assay: Antitumor activity against human A375 cells xenografted in nude mouse assessed as reduction in tumor weight at 15 mg/kg, ip administered once daily for 14 days relative to control; type: functional; set-up: scale not given: the % may be the effect or the level left
A-375 [17] = assay: Antitumor activity against human A375 cells xenografted in nude mouse assessed as reduction in tumor weight at 30 mg/kg, ip administered once daily for 14 days relative to control; type: functional; set-up: scale not given: the % may be the effect or the level left
B16-F10 = assay: Antimetastatic activity against mouse B16F10 cells xenografted in C57BL/6 mouse assessed as reduction in lung metastasis at 30 mg/kg, ip administered once daily for 2 weeks with 2 days rest after day 5 and measured after 15 days relative to control; type: functional; set-up: scale not given: the % may be the effect or the level left
[18] = Acute toxicity in nude mouse xenografted with human A375 cells assessed as injury to lung at 30 mg/kg, ip administered once daily for 14 days by hematoxylin and eosin staining-based assay; type: organism-based; conditions: in vivo, 336 h
[19] = Acute toxicity in nude mouse xenografted with human A375 cells assessed as injury to lung at 15 mg/kg, ip administered once daily for 14 days by hematoxylin and eosin staining-based assay; type: organism-based; conditions: in vivo, 336 h
[20] = Acute toxicity in nude mouse xenografted with human A375 cells assessed as injury to spleen at 15 mg/kg, ip administered once daily for 14 days by hematoxylin and eosin staining-based assay; type: organism-based; conditions: in vivo, 336 h
[21] = Acute toxicity in nude mouse xenografted with human A375 cells assessed as injury to liver at 15 mg/kg, ip administered once daily for 14 days by hematoxylin and eosin staining-based assay; type: organism-based; conditions: in vivo, 336 h
[22] = Acute toxicity in nude mouse xenografted with human A375 cells assessed as injury to kidney at 15 mg/kg, ip administered once daily for 14 days by hematoxylin and eosin staining-based assay; type: organism-based; conditions: in vivo, 336 h
[23] = Acute toxicity in nude mouse xenografted with human A375 cells assessed as injury to heart at 15 mg/kg, ip administered once daily for 14 days by hematoxylin and eosin staining-based assay; type: organism-based; conditions: in vivo, 336 h
[24] = Acute toxicity in nude mouse xenografted with human A375 cells assessed as injury to spleen at 30 mg/kg, ip administered once daily for 14 days by hematoxylin and eosin staining-based assay; type: organism-based; conditions: in vivo, 336 h
[25] = Acute toxicity in nude mouse xenografted with human A375 cells assessed as injury to liver at 30 mg/kg, ip administered once daily for 14 days by hematoxylin and eosin staining-based assay; type: organism-based; conditions: in vivo, 336 h
[26] = Acute toxicity in nude mouse xenografted with human A375 cells assessed as injury to kidney at 30 mg/kg, ip administered once daily for 14 days by hematoxylin and eosin staining-based assay; type: organism-based; conditions: in vivo, 336 h
[27] = Acute toxicity in nude mouse xenografted with human A375 cells assessed as injury to heart at 30 mg/kg, ip administered once daily for 14 days by hematoxylin and eosin staining-based assay; type: organism-based; conditions: in vivo, 336 h
[28] = Acute toxicity in C57BL/6 mouse xenografted with mouse B16F10 cells assessed as injury to lung at 30 mg/kg, ip administered once daily for 2 weeks with 2 days rest after day 5 and measured after 15 days by hematoxylin and eosin staining-based assay; type: organism-based; conditions: in vivo, 360 h
[29] = Acute toxicity in C57BL/6 mouse xenografted with mouse B16F10 cells assessed as injury to spleen at 30 mg/kg, ip administered once daily for 2 weeks with 2 days rest after day 5 and measured after 15 days by hematoxylin and eosin staining-based assay; type: organism-based; conditions: in vivo, 360 h
[30] = Acute toxicity in C57BL/6 mouse xenografted with mouse B16F10 cells assessed as injury to liver at 30 mg/kg, ip administered once daily for 2 weeks with 2 days rest after day 5 and measured after 15 days by hematoxylin and eosin staining-based assay; type: organism-based; conditions: in vivo, 360 h
[31] = Acute toxicity in C57BL/6 mouse xenografted with mouse B16F10 cells assessed as injury to kidney at 30 mg/kg, ip administered once daily for 2 weeks with 2 days rest after day 5 and measured after 15 days by hematoxylin and eosin staining-based assay; type: organism-based; conditions: in vivo, 360 h
[32] = Acute toxicity in C57BL/6 mouse xenografted with mouse B16F10 cells assessed as injury to heart at 30 mg/kg, ip administered once daily for 2 weeks with 2 days rest after day 5 and measured after 15 days by hematoxylin and eosin staining-based assay; type: organism-based; conditions: in vivo, 360 h
[33] = target: Sodium-dependent noradrenaline transporter (Homo sapiens, UniProt P23975); assay: Antagonist activity at human norepinephrine transporter at 1 uM; type: ADME
[34] = target: 5-hydroxytryptamine receptor 2B (Homo sapiens, UniProt P41595); assay: Antagonist activity at human HTR2B at 1 uM
PC-3 = assay: Antiproliferative activity against human PC3 cells; type: functional, cell-based
[35] = Antiproliferative activity against human PC3-TxR cells; type: functional, cell-based
[36] = Resistance index, ratio of IC50 for human PC3-TxR cells to IC50 for human PC3 cells; type: functional
DU-145 = assay: Antiproliferative activity against human DU145 cells; type: functional, cell-based
[37] = Antiproliferative activity against human DU145-TxR cells; type: functional, cell-based
[38] = Resistance index, ratio of IC50 for human DU145-TxR cells to IC50 for human DU145 cells; type: functional
[39] = Antitumor activity against human PC3-TxR cells xenografted in nude mouse assessed as tumor growth inhibition at 30 mg/kg administered every other day for 3 weeks relative to control; type: functional; conditions: 504 h, read-out: TGI
[40] = Antitumor activity against human PC3-TxR cells xenografted in nude mouse assessed as reduction in tumor weight at 30 mg/kg administered every other day for 3 weeks relative to control; type: functional; set-up: scale not given: the % may be the effect or the level left
[41] = Toxicity in nude mouse xenografted with human PC-3/TxR cells assessed as effect on body weight at 30 mg/kg administered every other day for 3 weeks; conditions: in vivo, 504 h

Sequence of 5-hydroxytryptamine receptor 2B (P41595 whole entry): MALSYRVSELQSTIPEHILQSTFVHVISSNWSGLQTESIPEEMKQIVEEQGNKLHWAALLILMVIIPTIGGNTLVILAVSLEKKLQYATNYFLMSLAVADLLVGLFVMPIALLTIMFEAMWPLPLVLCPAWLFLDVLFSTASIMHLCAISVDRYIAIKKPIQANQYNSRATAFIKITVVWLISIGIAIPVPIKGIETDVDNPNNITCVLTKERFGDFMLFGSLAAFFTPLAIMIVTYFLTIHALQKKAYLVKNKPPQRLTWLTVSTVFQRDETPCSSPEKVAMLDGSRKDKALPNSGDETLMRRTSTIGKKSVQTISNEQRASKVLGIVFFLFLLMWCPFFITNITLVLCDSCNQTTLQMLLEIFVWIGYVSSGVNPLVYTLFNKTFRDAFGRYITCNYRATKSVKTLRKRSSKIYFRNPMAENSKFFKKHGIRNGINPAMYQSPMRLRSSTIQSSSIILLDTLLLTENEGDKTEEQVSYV
Sequence of Sodium-dependent noradrenaline transporter (P23975 whole entry): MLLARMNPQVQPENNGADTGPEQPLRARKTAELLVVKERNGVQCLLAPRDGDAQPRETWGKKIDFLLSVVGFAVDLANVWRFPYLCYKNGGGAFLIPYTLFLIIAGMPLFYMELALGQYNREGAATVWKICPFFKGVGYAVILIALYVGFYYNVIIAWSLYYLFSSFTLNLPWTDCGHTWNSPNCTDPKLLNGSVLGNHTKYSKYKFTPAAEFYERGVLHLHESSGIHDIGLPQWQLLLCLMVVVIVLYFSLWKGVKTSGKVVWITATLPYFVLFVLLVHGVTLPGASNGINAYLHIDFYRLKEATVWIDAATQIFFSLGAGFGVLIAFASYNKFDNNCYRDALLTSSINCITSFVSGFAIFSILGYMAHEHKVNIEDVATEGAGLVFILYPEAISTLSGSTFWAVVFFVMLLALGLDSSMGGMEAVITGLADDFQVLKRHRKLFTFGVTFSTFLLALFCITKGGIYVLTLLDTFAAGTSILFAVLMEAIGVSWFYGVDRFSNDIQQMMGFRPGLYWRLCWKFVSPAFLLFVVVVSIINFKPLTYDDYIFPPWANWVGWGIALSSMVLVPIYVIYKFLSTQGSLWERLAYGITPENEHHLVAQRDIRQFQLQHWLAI

COc1cc(C(=O)c2c[nH]c(-c3cccc4[nH]ccc34)n2)cc(OC)c1OC
IC50 (A-375 [1]): 3.6 nM
IC50 (M14): 3.7 nM
IC50 (WM164): 1.6 nM
inhibition (Tubulin (Bos taurus)): Active
Activity (Tubulin (Homo sapiens) [2]): Active
Activity (Tubulin (Homo sapiens) [3]): Active
inhibition at 0.005 µM (A-375 [4]): 35.6%
Activity (A-375 [5]): 38.5%
Activity (A-375 [6]): 38.5%
Activity (RPMI-7951): 35%
half-life [7]: 5.04 h
CLint scaled [8]: 11.3 mL/min/kg
half-life [9]: 5.26 h
CLint scaled [10]: 8.9 mL/min/kg
half-life [11]: 6.72 h
CLint scaled [12]: 3.1 mL/min/kg
MTD [13]: ≤ 65 mg/kg
inhibition in vivo at 15 mg/kg (A-375 [14]): 82.3%
inhibition in vivo at 30 mg/kg (A-375 [15]): 90.6%
Activity (A-375 [16]): 67.3%
Activity (A-375 [17]): 70.1%
Activity (B16-F10): 80.9%
Activity [18]: Non-Toxic
Activity [19]: Non-Toxic
Activity [20]: Non-Toxic
Activity [21]: Non-Toxic
Activity [22]: Non-Toxic
Activity [23]: Non-Toxic
Activity [24]: Non-Toxic
Activity [25]: Non-Toxic
Activity [26]: Non-Toxic
Activity [27]: Non-Toxic
Activity [28]: Non-Toxic
Activity [29]: Non-Toxic
Activity [30]: Non-Toxic
Activity [31]: Non-Toxic
Activity [32]: Non-Toxic
Activity [33]: Active
Activity [34]: Active
IC50 (PC-3): 89.9 nM
IC50 [35]: 66.9 nM
Ratio IC50 [36]: 0.7
IC50 (DU-145): 169 nM
IC50 [37]: 379 nM
Ratio IC50 [38]: 2.2
inhibition in vivo at 30 mg/kg [39]: 83.8%
Activity [40]: 62.8%
Activity [41]: Non-Toxic
